Experimental data published in patent US20070141581A1, “Membrane androgen receptor as a therapeutic target for the prevention/promotion of cell death” (University of North Texas Health Science Center at Fort …, priority 2005, published 2007).

Assays:
C6 glial cells = test: LDH release / iodoacetic acid (IAA) induced cell death of C6 glial cells; assay type: cell-based, Rat
Procedure: Triton-X (Tr-X, 0.9%)-induced lysis of cells served as the positive control for LDH release. Estradiol (E2, 10 μM) treatment of cells served as the positive control for protection against IAA-induced LDH release. Data are representative of two independent studies. The effect shown in FIG. 10, is in sharp contrast to the protective effect of DHT reported previously, and supports further the observation that two, potentially competing, mechanisms regulate the effects of androgens on cell viability. In all studies that used the membrane impermeable androgen, the DHT-BSA preparation was filtered using a 10 kDa nominal cut-off column prior to application of this steroid hormone conjugate, to ensure that the effects of DHT-BSA were not attributed to, or confounded by the presence of free (unconjugated) DHT. Stevis, et al., (Stevis P E, Deecher D C, Suhadolnik L, Mallis L M, Frail D E 1999 Differential effects of estradiol and estradiol-BSA conjugates. Endocrinology 140:5455-8) have described that the commercially available preparation of estradiol-conjugated to BSA (E2-BSA), for example, was contaminated with some free estradiol.

Akt = Akt phosphorylation in C6 glial cells (Western blot); assay type: cell-based, Rat
Procedure: (§1) Materials and Methods. Cell culture. Rat glioma cells (C6; American Type Culture Collection, Manassas, Va.) were propagated in Dulbecco's Modified Eagle Medium (DMEM; Invitrogen, Carlsbad, Calif.) supplemented with 10% charcoal-stripped fetal bovine serum (FBS; Hyclone, Logan, Utah), and maintained at 37° C. in a humidified environment containing 5% CO2.
(§2) Treatment of cultures. C6 glial cells were treated with either vehicle control (DMSO, 0.1%), dihydrotestosterone (DHT) (Steraloids Inc., Newport, R.I.), or 5α-androstan-17β-ol-3-one-3-o-carboxymethyloxime:BSA (DHT-BSA) (Steraloids Inc.) at the concentrations indicated for 30 minutes, to assess the effects of these hormones on ERK and Akt phosphorylation. […] Inhibition of the classical androgen receptor was achieved using the androgen receptor antagonist, Flutamide (3 μM; Sigma-Aldrich, St. Louis, Mo.), which was applied 30 minutes prior to treatment with the hormone. Inhibition of MEK, the signaling protein upstream of ERK was achieved using U0126 (10 μM; Cell Signaling, Beverly, Mass.), also pre-incubated for a period of 30 minutes prior to hormone administration.
(§3) Western blot analysis. Following treatment with hormone and/or inhibitor, C6 glial cells were harvested into lysis buffer containing protease and phosphatase inhibitors as described previously (25). Following homogenization, samples were centrifuged at 99,000×g for 15 min at 4° C., and the resulting supernatants were evaluated for total protein concentrations using the BioRad DC (Biorad Labs, Hercules, Calif.) protein assay kit [based on the method of Lowry; (26)]. Sample lysates were loaded onto a sodium dodecyl sulfate (SDS), 10% polyacrylamide gel (PAGE), subjected to electrophoresis, and subsequently transferred onto a polyvinylidene difluoride membrane (PVDF; 0.22 μm pore size, BioRad). The membrane was blocked for 6 hrs with a 3% BSA in 0.2% Tween-containing TBS (TBS-T) solution prior to application of the primary antibody. The following primary antibodies were used: for the detection of the androgen receptor, anti-AR (C-19) (1:200; Santa Cruz Biotechnology); for the detection of the phosphorylated form of Akt: rabbit anti-phospho-Akt (Ser473; 1:1000; Cell Signaling, Beverly, Mass.), for the detection of total Akt, anti Akt (1:1000; Cell Signaling); for the detection of the phosphorylated form of ERK1/2, rabbit anti phospho-p44/42 Map Kinase (Thr202/Tyr204, 1:1000; Cell Signaling); for the detection of total ERK1 and ERK2, goat anti-ERK1 (C-16, 1:500)/goat anti-ERK2 (C-14, 1:500; Santa Cruz Biotechnology). Antibody binding to the membrane was detected using a secondary antibody (either goat anti-rabbit or rabbit anti-goat) conjugated to horseradish peroxidase (1:20,000; Pierce, Rockford, Ill.) and visualized using enzyme-linked chemiluminescence (ECL, Amersham, Arlington Heights, Ill.) with the aid of the UVP imaging system. Phospho-Akt and phosphoERK blots were re-probed with anti-Akt or anti ERK1/2 antibodies to ensure equal loading across lanes.
(§4) Statistical Analysis. Densitometric analysis of the Western blots was conducted using the LabWorks Image Acquisition and Analysis Software (UVP Inc., Upland, Calif.). Densitometric data from at least three independent studies was subjected to an analysis of variance (ANOVA), followed by a Tukey's post hoc analysis for the assessment of group differences, and presented as a bar graph depicting the average±S.E.M., using the GraphPad Software (San Diego, Calif.).

ERK = ERK phosphorylation in C6 glial cells (Western blot); assay type: cell-based, Rat
Procedure: as §1, §2, §3, §4

[1] = system: membrane-associated androgen receptor; test: Flow cytometry binding of DHT-BSA-FITC to the cell surface of live C6 glial cells; set-up: species or system Rat; conditions: 20-fold molar excess of DHT (1 mM) vs DHT-BSA-FITC 50 μM
Procedure: Flow cytometry. Briefly, C6 glial cells (10^6 cells) were pipetted into a 1.5 ml micro-centrifuge tube, centrifuged at 250×g for 5 minutes and washed twice with 1 ml of PBS. […] In parallel, cells were re-suspended in PBS treated with BSA-FITC (50 μM; Sigma Aldrich), serving as the control for the detection of “non-specific binding”. Following this incubation period, the cells were washed twice in PBS and resuspended in 500 μl of PBS. The labeled C6 glial cells were injected into an EPICS XL-MCL flow cytometer (Beckman Coulter) and analyzed with System 2 software (Beckman Coulter).
In order to determine if DHT-BSA binds to a specific site on the cell surface (indicative of a membrane-associated androgen receptor), the binding of the fluorescently-labeled DHT-BSA (DHT-BSA-FITC) in C6 glial cells was evaluated. Non-“fixed” and non-permeabilized C6 glial cells were treated with DHT-BSA-FITC (50 μM) in the presence or absence of 20-fold molar excess of DHT (1 mM). Incubation of the cells with BSA-FITC alone for 30 min at 4° C. provided a measure of non-specific binding.
To determine if DHT-BSA binds to surface (plasma membrane) receptors, C6 glial cells were treated with DHT-BSA-FITC (50 μM) for 30 min. in the presence/absence of a 20-fold molar excess of DHT (1 mM). Samples were washed and analyzed using flow cytometric analysis.

[2] = system: hippocampal neuron damage; conditions: kainic acid model, reference 33; cited from earlier work

## 5α-androstan-17β-ol-3-one-3-o-carboxymethyloxime:BSA [DHT-BSA]
C6 glial cells; increasing concentrations, alone
  cellular damage as assessed by LDH release into the media: did not result in cellular damage
C6 glial cells; with low level insult IAA 10 μM
  toxicity associated with IAA (LDH release): significantly increased the toxicity associated with IAA
Akt; 0.01, 0.1 and 1 μM, 30 min
  Akt phosphorylation (phospho-Akt levels relative to sham control): dose-dependent suppression of Akt phosphorylation
Akt; 30 min, C6 glial cells
  concentration at which the inhibitory effect on Akt phosphorylation becomes evident: 0.1 µM
ERK; 0.01, 0.1, 1.0 μM, 30 min, particularly at 100 nM and 1 μM
  ERK phosphorylation (phospho-ERK levels relative to sham control): substantial suppression of ERK phosphorylation
ERK; 30 min, C6 glial cells
  concentration at which the inhibitory effect on ERK phosphorylation becomes evident: 0.1 µM
ERK; co-applied with DHT 10 nM, 30 min, 0.01, 0.1, 1 μM, dose dependent
  effect on DHT-induced ERK phosphorylation: blocked the effect of DHT

## C[C@]12CCC(=O)C[C@@H]1CC[C@@H]1[C@@H]2CC[C@]2(C)[C@@H](O)CC[C@@H]12 [DHT, dihydrotestosterone]
[1]
  displacement of DHT-BSA-FITC labeling: displaced
Akt
  Akt phosphorylation (phospho-Akt levels): induced an increase in Akt phosphorylation
[2]
  amount of hippocampal neuron damage: reduce the amount of hippocampal neuron damage
ERK
  ERK phosphorylation at higher concentrations: did not result in an increase in ERK phosphorylation
  increase in the phosphorylation of ERK: 2.5 fold

## C[C@]12CCC(=NOCC(=O)O)C[C@@H]1CC[C@@H]1[C@@H]2CC[C@]2(C)[C@@H](O)CC[C@@H]12 [DHT:CMO, 5α-androstan-17β-ol-3-one-3-o-carboxymethyloxime]
ERK; 0.01, 0.1, 1 μM, 30 min
  ERK phosphorylation by CMO-modified DHT: did not alter the ability of the androgen to elicit ERK phosphorylation

## CC(C)C(=O)Nc1ccc([N+](=O)[O-])c(C(F)(F)F)c1 [Flutamide]
Akt; Flutamide 3 μM
  effect of AR antagonist on DHT-induced Akt phosphorylation: failed to inhibit

## N#CC(=C(/N)Sc1ccccc1N)/C(C#N)=C(\N)Sc1ccccc1N [U0126]
ERK
  effect of MEK1/2 inhibitor on DHT-induced ERK phosphorylation: blocked

## Pertussis toxin
Akt; 50 μM, data not shown
  effect of Gi/o inhibitor on DHT-BSA-mediated suppression of Akt phosphorylation: failed to prevent
ERK; 50 μM, data not shown
  effect of Gi/o inhibitor on DHT-BSA-mediated suppression of ERK phosphorylation: failed to prevent
